Active and inactive are the calls of the source. The calls are words filed in the database; no cut-off is given here.
Legend:
[1] = molecular target: T1, Folylpolyglutamate synthase, mitochondrial (Homo sapiens) (UniProt Q05932); assay: Ratio of Vmax relative to […] to Km of human recombinant cytosolic FPGS
T1 sequence (whole entry): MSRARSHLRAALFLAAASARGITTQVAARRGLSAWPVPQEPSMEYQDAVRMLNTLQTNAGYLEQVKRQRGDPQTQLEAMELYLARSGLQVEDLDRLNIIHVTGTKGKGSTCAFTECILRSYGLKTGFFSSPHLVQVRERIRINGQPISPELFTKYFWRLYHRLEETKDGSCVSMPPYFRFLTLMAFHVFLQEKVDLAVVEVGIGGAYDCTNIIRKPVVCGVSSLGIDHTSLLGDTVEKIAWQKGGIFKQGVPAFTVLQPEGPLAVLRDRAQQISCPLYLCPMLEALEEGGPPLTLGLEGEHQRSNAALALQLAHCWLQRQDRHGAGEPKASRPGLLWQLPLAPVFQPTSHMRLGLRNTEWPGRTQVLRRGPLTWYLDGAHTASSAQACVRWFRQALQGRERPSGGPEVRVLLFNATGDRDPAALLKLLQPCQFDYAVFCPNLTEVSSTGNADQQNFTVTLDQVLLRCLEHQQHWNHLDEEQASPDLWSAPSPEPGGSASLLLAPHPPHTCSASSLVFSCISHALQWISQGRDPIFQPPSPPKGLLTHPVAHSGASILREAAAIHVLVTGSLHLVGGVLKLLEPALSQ

CCRF-CEM = assay: Growth inhibition of human CCRF-CEM cells at 20 uM; assay type: functional, cell-based

## Cc1c(Sc2ccc(C(=O)N[C@@H](CCC(=O)O)C(=O)O)cc2)[nH]c2nc(N)[nH]c(=O)c12
[1]
  Ratio: 0.06
CCRF-CEM
  Activity: inactive

## Nc1nc(N)c2nc(CNc3ccc(C(=O)N[C@@H](CCC(=O)O)C(=O)O)cc3)cnc2n1
[1]
  Ratio: 0.17

Source: ChEMBL document CHEMBL1139472, “Synthesis of N-{4-[(2,4-diamino-5-methyl-4,7-dihydro-3H-pyrrolo[2,3-d]pyrimidin-6-yl)thio]benzoyl}-L-glutamic acid and N-{4-[(2-amino-4-oxo-5-methyl-4,7-dihydro-3H-pyrrolo[2,3-d]pyrimidin-6-yl)thio]benzoyl}-L-glutamic acid as dual inhibitors of dihydrofolate reductase and thymidylate synthase and …” (J Med Chem, 2005)
